{"source": "patent US6042841A", "about": "“Cosmetic method of treating skin” (Unilever Home & Personal Care USA Division of Conopco, Inc., priority 1998, dated 2000)", "assay_type_in_all_cases": "cell-based", "key": {"decorin": {"test_system": "decorin", "experiment": "Dot blot assay for decorin synthesis in human dermal fibroblasts", "experimental": "Primary human foreskin fibroblasts at passage 2 (P2) were seeded into 12-well plates at 10000 cells/cm^2 and maintained for 24 hours in an atmosphere of 5% carbon dioxide and 4% oxygen in Dulbeccos Modified Eagles Medium (DMEM) supplemented with 10% foetal calf serum. After this time the cells were washed with serum free DMEM and then incubated in fresh serum free DMEM for a further 60 hours. The fibroblast monolayers were then washed again with serum free DMEM. Test reagents and vehicle controls were added to the cells in triplicate in a final volume of 0.4 ml/well fresh serum free DMEM and incubated for a further 24 hours. This fibroblast conditioned medium was either analysed immediately or snap frozen in liquid nitrogen and stored at -70° C. for future analysis. The cells were then counted and data from the dot-blot analysis subsequently standardised to cell number.\nSamples of conditioned medium from dermal fibroblasts treated with vehicle (as a control) or test reagents were supplemented with 20 mM dithiothreitol (1:10 dilution of 200 mM stock solution) and 0.1% sodium dodecylsulphate (1:100 dilution of 10% stock solution), mixed well and then incubated at 75° C. for 2 minutes. A standard for the assay was generated by serial dilution of neat fibroblast conditioned medium from fibroblasts seeded at 10000 cells/cm^2 in a 175 cm^2 flask and maintained in serum free DMEM as described above. Assay samples were subsequently applied in triplicate to a prewetted sheet of Immobilon-P transfer membrane using the 96-well Bio-Dot Apparatus from Bio-Rad as described in the manufacturers guidelines. Approximately 200 μl of medium was applied per well. […] Dot intensity was assessed by computer-assisted image analysis using the quantification tools in ImageQuant™, standardised to cell number and the effects of various test reagents on decorin and procollagen-I synthesis were determined relative to a vehicle treated control value of 100 arbitrary units."}, "ICAM": {"test_system": "ICAM", "experiment": "ICAM-1 assay, PMA-induced ICAM production in human skin fibroblasts", "conditions": "for ICAM: N 4, p < 0.001 vs PMA-treated", "experimental": "Intracellular adhesion molecules (ICAM) and PEG2 production by human skin fibroblasts can be induced by the inflammatory stimulus PMA (phorbal myristate acetate). PMA represents an external stressor which induces oxidative stress and inflammatory responses in cells. This model is used to model inflammation in vivo.\nPrimary human foreskin fibroblasts at passage 2 (P2) were seeded into 96-well plates at 10000 cells/well and maintained for 24 hours in an atmosphere of 5% carbon dioxide in Dulbeccos Modified Eagles Medium (DMEM) supplemented with 10% foetal calf serum. […] Phorbal myristate acetate (PMA) (Sigma) was added to the media and the cells incubated for a further 24 hours. […] The fibroblasts/media were then analysed as described below immediately or snap frozen in liquid nitrogen and stored at -70° C. for future analysis. The cells were then counted and data from the dot-blot analysis subsequently standardised to cell number.\nICAM-1 assay: Media were discarded and cells washed with Dulbecco PBS. To the washed cells, 150 μl 0.1% Triton X-100 (Sigma) was added for 3 minutes to extract ICAM from cell membrane. The extracts were transferred to Eppendoff centrifuge tubes and centrifuged at 1000 g for 2 min to remove cell debris. A volume of 100 μl supernatant was used for ICAM assay. The soluble ICAM-1 was assessed with commercially available immunoenzymometric assay kit (R&D Systems). Concentrations of ICAM-1 in the samples were determined based on parallelly running standard curve."}, "PGE2": {"test_system": "PGE2", "experiment": "Keratinocyte PGE2 assay (basal release)", "conditions": "0.1 and 1 μM; 1 way ANOVA, p<0.05", "experimental": "This was then replaced with KGM without hydrocortisone for 24-48 hours. No petroselinic acid was added to the control cells. […] At the end of the incubation the medium was harvested and assayed for the basal release of the pro-inflammatory PGE2 by enzyme-linked immuno assay using a commercial PGE2 kit (Amersham, Buckinghamshire, England).\nThe anti-inflammatory potential of the test compounds were assessed by the ability of the compounds to reduce the basal levels of secreted PGE2 as compared to the control. […]"}, "keratinocytes": {"test_system": "keratinocytes", "experiment": "Keratinocyte SDS viability assay (Neutral Red)", "conditions": "vs 2 μg/ml SDS alone; 1 way ANOVA, p<0.05", "experimental": "After incubating for 24 hours the medium was removed and the viability determined by the Neutral Red method."}}}
{"smiles": "CCCCCCCCCCC/C=C\\CCCCC(=O)O", "note": "[Petroselinic Acid, petroselinic acid]", "values": [{"measurement": "decorin synthesis (in words)", "setting": "decorin; compared to the control", "value": "significantly upregulates"}, {"measurement": "magnitude of upregulation of decorin synthesis vs retinoic acid (in words)", "setting": "decorin; petroselinic acid 10 μM vs retinoic acid 1 μm (so in the source)", "value": "exceeds that of the bench-mark anti-aging dermal repair active, retinoic acid"}, {"measurement": "ICAM", "setting": "ICAM; PMA + PA (0.1 uM)", "value": "8.64 ± 0.89", "unit": "ng/mL"}, {"measurement": "ICAM", "setting": "ICAM; PMA + PA (1 uM)", "value": "7.71 ± 0.66", "unit": "ng/mL"}, {"measurement": "ICAM", "setting": "ICAM; PMA + PA (10 uM)", "value": "7.39 ± 0.14", "unit": "ng/mL"}, {"measurement": "ICAM", "setting": "ICAM; PMA + PA (100 uM)", "value": "6.68 ± 1.35", "unit": "ng/mL"}, {"measurement": "production of ICAM (in words)", "setting": "ICAM; PMA-challenged", "value": "decreases the production"}, {"measurement": "release of PGE2 from unstimulated keratinocytes (in words)", "setting": "PGE2", "value": "significantly (p<0.05) reduced"}, {"measurement": "Keratinocyte viability vs SDS alone (in words)", "setting": "keratinocytes", "value": "significantly increased viability"}]}
